Laboratory results as given in ChEMBL document CHEMBL1137300, “Identification of the brominated flame retardant 1,2-dibromo-4-(1,2-dibromoethyl)cyclohexane as an androgen agonist” (J Med Chem, 2006).

Key:
Androgen receptor [1] = target: T1, Androgen receptor (Rattus norvegicus, UniProt P15207); assay: Displacement of androgen fluormone from rat androgen receptor
T1 sequence (P15207 whole entry): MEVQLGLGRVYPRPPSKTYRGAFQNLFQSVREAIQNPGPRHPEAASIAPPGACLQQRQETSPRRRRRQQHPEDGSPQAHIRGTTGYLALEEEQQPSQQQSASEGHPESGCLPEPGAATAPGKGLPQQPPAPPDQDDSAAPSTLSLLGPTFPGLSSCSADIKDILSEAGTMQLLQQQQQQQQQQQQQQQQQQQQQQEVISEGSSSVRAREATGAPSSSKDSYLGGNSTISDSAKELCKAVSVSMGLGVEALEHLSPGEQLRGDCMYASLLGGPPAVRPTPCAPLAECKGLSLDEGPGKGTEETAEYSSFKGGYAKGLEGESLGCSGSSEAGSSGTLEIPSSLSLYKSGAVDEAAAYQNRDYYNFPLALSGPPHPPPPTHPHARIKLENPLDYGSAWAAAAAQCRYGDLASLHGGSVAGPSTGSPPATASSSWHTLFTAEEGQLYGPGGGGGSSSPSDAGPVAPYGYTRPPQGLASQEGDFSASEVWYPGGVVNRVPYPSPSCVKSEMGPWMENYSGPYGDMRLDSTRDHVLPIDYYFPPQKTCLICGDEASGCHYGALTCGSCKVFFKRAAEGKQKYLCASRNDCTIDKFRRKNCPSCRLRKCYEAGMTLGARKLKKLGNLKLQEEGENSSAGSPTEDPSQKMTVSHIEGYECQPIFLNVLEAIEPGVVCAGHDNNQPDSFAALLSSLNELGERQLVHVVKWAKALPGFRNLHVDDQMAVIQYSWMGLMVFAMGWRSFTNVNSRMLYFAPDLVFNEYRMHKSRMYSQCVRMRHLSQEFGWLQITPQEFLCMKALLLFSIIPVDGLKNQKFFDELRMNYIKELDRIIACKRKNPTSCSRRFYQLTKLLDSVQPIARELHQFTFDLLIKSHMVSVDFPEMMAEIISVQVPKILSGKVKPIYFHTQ

Androgen receptor [2] = target: T2, Androgen receptor (Homo sapiens, UniProt P10275); assay: Activity against human androgen receptor expressed in HepG2 cells assessed as luciferase reporter gene activation
T2 sequence (P10275 whole entry): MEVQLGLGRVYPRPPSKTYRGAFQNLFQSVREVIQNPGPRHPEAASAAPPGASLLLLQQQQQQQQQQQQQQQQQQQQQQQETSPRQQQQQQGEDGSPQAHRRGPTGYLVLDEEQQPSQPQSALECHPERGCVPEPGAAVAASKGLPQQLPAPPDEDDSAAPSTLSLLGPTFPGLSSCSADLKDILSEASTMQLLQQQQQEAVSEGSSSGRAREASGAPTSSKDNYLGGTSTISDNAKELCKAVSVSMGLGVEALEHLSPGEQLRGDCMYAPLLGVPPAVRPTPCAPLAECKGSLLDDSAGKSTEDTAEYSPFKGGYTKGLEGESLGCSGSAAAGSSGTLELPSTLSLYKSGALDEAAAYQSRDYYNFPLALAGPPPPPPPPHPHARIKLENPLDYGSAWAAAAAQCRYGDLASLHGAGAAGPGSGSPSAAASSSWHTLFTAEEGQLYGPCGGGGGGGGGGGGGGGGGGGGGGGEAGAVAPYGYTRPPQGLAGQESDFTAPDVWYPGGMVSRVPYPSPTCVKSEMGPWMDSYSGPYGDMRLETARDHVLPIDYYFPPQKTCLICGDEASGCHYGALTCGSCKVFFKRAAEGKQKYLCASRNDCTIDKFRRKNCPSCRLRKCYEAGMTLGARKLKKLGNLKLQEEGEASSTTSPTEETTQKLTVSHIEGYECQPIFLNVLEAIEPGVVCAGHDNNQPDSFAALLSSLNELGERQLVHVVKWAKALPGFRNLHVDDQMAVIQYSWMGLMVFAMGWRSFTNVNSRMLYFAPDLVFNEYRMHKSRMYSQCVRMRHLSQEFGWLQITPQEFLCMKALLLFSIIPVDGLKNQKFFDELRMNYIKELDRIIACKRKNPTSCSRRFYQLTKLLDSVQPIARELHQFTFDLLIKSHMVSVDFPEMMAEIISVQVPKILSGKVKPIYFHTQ

## BrCC(Br)C1CCC(Br)C(Br)C1 (configuration not stated)
Androgen receptor [1]
  IC50: 163 nM
Androgen receptor [2]
  IC50: 42.7 nM
